In article PMC3284191 (Journal of Agricultural and Food Chemistry, 2012):

Biological target: β-galactosidase LacZ from L. bulgaricus (nontagged) (Lactobacillus delbrueckii, UniProt Q1G9Z4)
Experiment: inhibition of oNPG hydrolysis, nonlinear regression
Assay type: biochemical
Conditions: read-out: nontagged LacZ; substrate oNPG; 50 mM sodium phosphate, pH 6.5, 30 °C; competitive

β-galactosidase LacZ from L. bulgaricus (nontagged), sequence (Q1G9Z4 2-1008): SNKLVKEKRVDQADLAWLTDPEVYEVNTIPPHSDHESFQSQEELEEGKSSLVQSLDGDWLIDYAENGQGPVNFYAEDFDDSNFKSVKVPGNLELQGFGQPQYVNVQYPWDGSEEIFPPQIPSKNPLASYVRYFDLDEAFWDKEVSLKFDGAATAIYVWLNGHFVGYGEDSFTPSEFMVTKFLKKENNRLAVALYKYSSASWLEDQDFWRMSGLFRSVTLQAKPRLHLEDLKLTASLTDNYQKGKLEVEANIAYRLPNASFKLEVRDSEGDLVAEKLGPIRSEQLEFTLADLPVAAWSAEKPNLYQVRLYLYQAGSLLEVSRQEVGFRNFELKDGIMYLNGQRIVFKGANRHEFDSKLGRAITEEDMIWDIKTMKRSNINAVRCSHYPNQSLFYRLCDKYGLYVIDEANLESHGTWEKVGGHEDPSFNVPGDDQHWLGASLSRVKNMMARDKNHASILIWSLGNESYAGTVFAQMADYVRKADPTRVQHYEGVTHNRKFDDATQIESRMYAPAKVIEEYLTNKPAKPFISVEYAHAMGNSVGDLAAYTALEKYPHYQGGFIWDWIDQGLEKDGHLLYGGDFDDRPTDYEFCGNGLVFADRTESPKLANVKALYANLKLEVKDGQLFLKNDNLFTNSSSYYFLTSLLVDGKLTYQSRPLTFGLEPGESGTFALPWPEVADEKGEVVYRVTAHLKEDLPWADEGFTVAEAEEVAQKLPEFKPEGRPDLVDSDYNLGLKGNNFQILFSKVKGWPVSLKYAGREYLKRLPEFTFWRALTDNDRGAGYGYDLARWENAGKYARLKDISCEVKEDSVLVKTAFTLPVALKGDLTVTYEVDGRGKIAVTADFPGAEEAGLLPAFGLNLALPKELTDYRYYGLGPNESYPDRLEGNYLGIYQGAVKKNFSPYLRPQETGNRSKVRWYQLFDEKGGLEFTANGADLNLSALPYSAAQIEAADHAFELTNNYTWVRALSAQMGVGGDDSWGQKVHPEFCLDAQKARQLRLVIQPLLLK

Ki: 9.52 ± 1.54 mM
SMILES: OC[C@H]1OC(O)[C@H](O)[C@@H](O)[C@H]1O (stereo partly drawn) [D-galactose]
